According to PubChem BioAssay AID1963825 (Molecular Pharmacology Branch, DTP, NCI, 2024):
pIC50: −log10 of the molar value.

Assay: Anticancer human tumor 997537-175-T-J1-PDC patient-derived colon adenocarcinoma cell line growth inhibition [POLQ]
Conditions: 997537-175-T-J1-PDC complex spheroid viability, combination with POLQ inhibitors; for pIC50: curve of first compound; for viability, T/C: stronger effect = lower value
In short: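 Growth inhibition in 3D: complex spheroids (tumor PDC, HUVEC, MSC) treated with POLQ inhibitor combinations; where Cmax unknown, highest tested concentration 10 microM, except SN-38 at 1 microM.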

[1] = second compound 0.0316 µM, first compound 0.0316 µM
[2] = second compound 0.0316 µM, first compound 0.1 µM
[3] = second compound 0.0316 µM, first compound 0.316 µM
[4] = second compound 0.0316 µM, first compound 1 µM
[5] = second compound 0.0316 µM, first compound 3.16 µM
[6] = second compound 0.0316 µM, first compound 10 µM
[7] = second compound 0.1 µM, first compound 0.0316 µM
[8] = second compound 0.1 µM, first compound 0.1 µM
[9] = second compound 0.1 µM, first compound 0.316 µM
[10] = second compound 0.1 µM, first compound 1 µM
[11] = second compound 0.1 µM, first compound 3.16 µM
[12] = second compound 0.1 µM, first compound 10 µM
[13] = second compound 0.316 µM, first compound 0.0316 µM
[14] = second compound 0.316 µM, first compound 0.1 µM
[15] = second compound 0.316 µM, first compound 0.316 µM
[16] = second compound 0.316 µM, first compound 1 µM
[17] = second compound 0.316 µM, first compound 3.16 µM
[18] = second compound 0.316 µM, first compound 10 µM
[19] = second compound 1 µM, first compound 0.0316 µM
[20] = second compound 1 µM, first compound 0.1 µM
[21] = second compound 1 µM, first compound 0.316 µM
[22] = second compound 1 µM, first compound 1 µM
[23] = second compound 1 µM, first compound 3.16 µM
[24] = second compound 1 µM, first compound 10 µM
[25] = second compound 3.16 µM, first compound 0.0316 µM
[26] = second compound 3.16 µM, first compound 0.1 µM
[27] = second compound 3.16 µM, first compound 0.316 µM
[28] = second compound 3.16 µM, first compound 1 µM
[29] = second compound 3.16 µM, first compound 3.16 µM
[30] = second compound 3.16 µM, first compound 10 µM
[31] = second compound 10 µM, first compound 0.0316 µM
[32] = second compound 10 µM, first compound 0.1 µM
[33] = second compound 10 µM, first compound 0.316 µM
[34] = second compound 10 µM, first compound 1 µM
[35] = second compound 10 µM, first compound 3.16 µM
[36] = second compound 10 µM, first compound 10 µM
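Further: luminescence signal used as a surrogate for viable cells; spheroids exposed to drugs for seven days before readout.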

CNCc1ccc(-c2[nH]c3cc(F)cc4c3c2CCNC4=O)cc1 + Cc1cccc(N(C)C(=O)C2C(O)CCN2c2nc(C)cc(C(F)(F)F)c2C#N)c1
pIC50 (second compound 0.0316 µM): < 5.00
pIC50 (second compound 0.1 µM): < 5.00
pIC50 (second compound 0.316 µM): < 5.00
pIC50 (second compound 1 µM): < 5.00
pIC50 (second compound 3.16 µM): < 5.00
pIC50 (second compound 10 µM): < 5.00
viability, T/C [1]: 94.7%
viability, T/C [2]: 114%
viability, T/C [3]: 81.6%
viability, T/C [4]: 87.9%
viability, T/C [5]: 109%
viability, T/C [6]: 85.3%
viability, T/C [7]: 119%
viability, T/C [8]: 94.2%
viability, T/C [9]: 103%
viability, T/C [10]: 104%
viability, T/C [11]: 101%
viability, T/C [12]: 121%
viability, T/C [13]: 105%
viability, T/C [14]: 103%
viability, T/C [15]: 99.5%
viability, T/C [16]: 102%
viability, T/C [17]: 119%
viability, T/C [18]: 89.5%
viability, T/C [19]: 92.4%
viability, T/C [20]: 113%
viability, T/C [21]: 99%
viability, T/C [22]: 86.3%
viability, T/C [23]: 99.8%
viability, T/C [24]: 90.2%
viability, T/C [25]: 116%
viability, T/C [26]: 84.8%
viability, T/C [27]: 99.8%
viability, T/C [28]: 117%
viability, T/C [29]: 82.1%
viability, T/C [30]: 96.9%
viability, T/C [31]: 103%
viability, T/C [32]: 112%
viability, T/C [33]: 94.2%
viability, T/C [34]: 101%
viability, T/C [35]: 95.5%
viability, T/C [36]: 89.4%

CC1COCCN1c1cc(-c2ccnn2C)c2ccnc(-c3ccn[nH]3)c2n1 (centres undefined) + Cc1cccc(N(C)C(=O)C2C(O)CCN2c2nc(C)cc(C(F)(F)F)c2C#N)c1
pIC50 (second compound 0.0316 µM): < 5.00
pIC50 (second compound 0.1 µM): < 5.00
pIC50 (second compound 0.316 µM): 5.83
pIC50 (second compound 1 µM): < 5.00
pIC50 (second compound 3.16 µM): 6.12
pIC50 (second compound 10 µM): < 5.00
viability, T/C [1]: 88.5%
viability, T/C [2]: 86.1%
viability, T/C [3]: 71.5%
viability, T/C [4]: 43.5%
viability, T/C [5]: 45.5%
viability, T/C [6]: 63.2%
viability, T/C [7]: 87.9%
viability, T/C [8]: 87%
viability, T/C [9]: 73.4%
viability, T/C [10]: 53.4%
viability, T/C [11]: 53.2%
viability, T/C [12]: 54.7%
viability, T/C [13]: 94.2%
viability, T/C [14]: 93.5%
viability, T/C [15]: 74%
viability, T/C [16]: 50.5%
viability, T/C [17]: 52.4%
viability, T/C [18]: 45.3%
viability, T/C [19]: 96.6%
viability, T/C [20]: 84.9%
viability, T/C [21]: 48.8%
viability, T/C [22]: 47.1%
viability, T/C [23]: 61.4%
viability, T/C [24]: 65.2%
viability, T/C [25]: 107%
viability, T/C [26]: 80.8%
viability, T/C [27]: 53.7%
viability, T/C [28]: 30.5%
viability, T/C [29]: 67.1%
viability, T/C [30]: 48.6%
viability, T/C [31]: 72.1%
viability, T/C [32]: 80.7%
viability, T/C [33]: 54.8%
viability, T/C [34]: 42%
viability, T/C [35]: 68.9%
viability, T/C [36]: 50.1%
